According to PubChem BioAssay (NCI):
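Assay format: 96-well plates, 48-hour exposure. GI50: concentration for 50% inhibition of growth. The concentration for full growth arrest is given as TGI.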

What was measured:
Test in all cases: inhibition of tumour cell growth, NCI panel, 48 h
[1] = test system: SK-MEL-28 melanoma
[2] = test system: HT29 colon
[3] = test system: RPMI-8226 leukemia
[4] = test system: PC-3 prostate
[5] = test system: RXF 393 renal
[6] = test system: MDA-MB-231 breast
[7] = test system: 786-0 renal
[8] = test system: MOLT-4 leukemia
[9] = test system: HCC-2998 colon
[10] = test system: SF-539 CNS

Structure (SMILES) | TGI [1] | TGI [2] | TGI [3] | TGI [4] | TGI [5] | TGI [6] | TGI [7] | TGI [8] | TGI [9] | TGI [10] | GI50 [1]
CCc1n[nH]c(=O)n1/N=C(\C)c1ccc([N+](=O)[O-])cc1 | > 100 µM | > 100 µM | > 100 µM | > 100 µM | > 100 µM | > 100 µM | > 100 µM | > 100 µM |  |  | 
COC(=O)C1=C(C)N2CCSC2(C)C(C(=O)OC)C1c1cccc(Cl)c1 (configuration not stated) | 46.9 µM | 33.4 µM | 81.7 µM |  | 53.5 µM |  |  | 45.6 µM | 40 µM | 24.9 µM | 
OCC(O)CNc1ncnc2ccccc12 (configuration not stated) | > 100 µM | > 100 µM | > 100 µM | > 100 µM | > 100 µM | > 100 µM | > 100 µM | > 100 µM | > 100 µM |  | 
CC(C)(C)c1ccc2c(c1)C#Cc1cc(C(C)(C)C)ccc1OCCCO2 | > 100 µM | > 100 µM | > 100 µM | > 100 µM | > 100 µM | > 100 µM | > 100 µM | > 100 µM |  |  | 
CC[C@@]1(O)C(=O)OCc2c1cc1n(c2=O)Cc2cc3ccccc3nc2-1 | 21.2 µM | 0.839 µM | 0.765 µM | > 100 µM | 0.126 µM |  |  | 0.0445 µM | 1.21 µM | 0.0591 µM | 0.18 µM
CCOC(=O)C1(C/C=C/CCl)CCCC1=O (configuration not stated) | 50.6 µM | 68.4 µM |  | > 100 µM | 32.7 µM | 42.5 µM | 49.4 µM | > 100 µM |  | 40.6 µM | 
O=C(NC(Cc1ccc(Br)cc1)C(=O)O)c1ccc(I)cc1 (configuration not stated) | > 100 µM | > 100 µM | > 100 µM |  | > 100 µM |  |  | > 100 µM | > 100 µM | > 100 µM | 
Nc1ccc(O)c2c1C(=O)c1c(N)ccc(O)c1C2=O | > 100 µM |  | > 100 µM |  | > 100 µM |  | > 100 µM | > 100 µM | > 100 µM | > 100 µM | 
Clc1cc(Cl)c2cc3cccc[n+]3cc2c1Cl | 29.9 µM | 30.7 µM | 45.7 µM | 29.2 µM |  | 48.9 µM | 46.7 µM | 31.3 µM | 36.6 µM | 32.4 µM | 
OC[C@H]1NC[C@@H](O)[C@@H](O)[C@H]1O |  | > 100 µM | > 100 µM | > 100 µM | > 100 µM | > 100 µM |  | > 100 µM | > 100 µM |  | 
CSc1nc(CO)c(CO)n1C | > 100 µM | > 100 µM | > 100 µM |  | > 100 µM |  |  | > 100 µM | > 100 µM | > 100 µM | 
COc1cc(/C=C2\N=C(c3ccccc3)N(c3ccc(C(=O)c4ccccc4)cc3N3C(=O)/C(=C/c4ccc(O)c(OC)c4)N=C3c3ccccc3)C2=O)ccc1O | 72.6 µM | 51.5 µM | 94.3 µM | 26.7 µM |  | 43.8 µM | 61.2 µM | 15.3 µM | 9.69 µM | 17.2 µM | 
CN(Cc1cn(O)c2nc(=N)nc(N)c-2n1)c1ccc(C(=O)NC23CC4CC(CC(C4)C2)C3)cc1 | > 100 µM |  | > 100 µM | > 100 µM | 94.9 µM | > 100 µM | > 100 µM | > 100 µM |  |  | 
CN(C)CCNC(=O)c1cc(Cl)cc2cc3ccccc3nc12 | 3.76 µM | 2.41 µM | 8.29 µM |  | 2.81 µM |  |  |  | 3.15 µM | 3.84 µM | 
C[C@@H]1C(=O)O[C@H]1[C@H](O)CO | > 100 µM |  | > 100 µM | > 100 µM | > 100 µM |  | > 100 µM | > 100 µM | > 100 µM |  | 
O=C(CSCC(=O)N/N=C/c1ccccc1)N/N=C\c1ccccc1 | > 100 µM | > 100 µM | > 100 µM | > 100 µM | > 100 µM | > 100 µM | > 100 µM | > 100 µM |  | > 100 µM | 
NC(CCOCCP(=O)(O)CCC1C=CC=CC1)C(=O)O (configuration not stated) | > 100 µM | > 100 µM | > 100 µM | > 100 µM | > 100 µM | > 100 µM |  | > 100 µM | > 100 µM | > 100 µM | 
CC(=O)O[C@H]1CC[C@H]2[C@@H]3CCC4=CC(=O)C=C[C@]4(O)[C@H]3CC[C@]12C | > 100 µM |  | 44.3 µM | > 93.1 µM | 76 µM | > 100 µM | > 100 µM | 25.7 µM | > 100 µM | > 100 µM | 
